Activity calls are given as the source filed them.
Tests used:
[1] = target: Eukaryotic translation initiation factor 4H (Homo sapiens, UniProt Q15056); experiment: inhibitors of translation initiation factor eIF4H – SAR follow-up (AID 435011); assay type: functional
[2] = target: T1, Polyadenylate-binding protein 1 (Homo sapiens, UniProt P11940); experiment: PABP inhibition in translation initiation, SAR follow-up (AID 435018); assay type: functional
[3] = Luminescence Cell-Based Dose Retest to Confirm Activators of 5'UTR Stem-Loop Driven Alpha-Synuclein mRNA Translation in H4 Neuroglioblastoma Cells. [Related pubchem assays (depositor defined):AID1813, AID1829]; assay type: functional
[4] = Luminescence Cell-Based Dose Response HTS to Identify Activators of Luciferase Translation or Activity in H4 […] Cells. [Related pubchem assays: 1829 (Project Summary), 1814 (Primary HTS)]; assay type: functional
[5] = target: T2, Heat shock factor protein 1 (Mus musculus, UniProt P38532); experiment: enhancement of HSF1-driven luciferase signal – cell-based, NIH3T3, luminescence, dose retest, confirmation (AID 435004); assay type: functional;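 further: stress induced by proteasome inhibitor MG132 added 30 min after compound; luciferase reporter driven by HSF1 response element in NIH3T3 cells; actives raise luminescence as potentiators of the MG132 stress response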
T2 sequence (P38532 whole entry): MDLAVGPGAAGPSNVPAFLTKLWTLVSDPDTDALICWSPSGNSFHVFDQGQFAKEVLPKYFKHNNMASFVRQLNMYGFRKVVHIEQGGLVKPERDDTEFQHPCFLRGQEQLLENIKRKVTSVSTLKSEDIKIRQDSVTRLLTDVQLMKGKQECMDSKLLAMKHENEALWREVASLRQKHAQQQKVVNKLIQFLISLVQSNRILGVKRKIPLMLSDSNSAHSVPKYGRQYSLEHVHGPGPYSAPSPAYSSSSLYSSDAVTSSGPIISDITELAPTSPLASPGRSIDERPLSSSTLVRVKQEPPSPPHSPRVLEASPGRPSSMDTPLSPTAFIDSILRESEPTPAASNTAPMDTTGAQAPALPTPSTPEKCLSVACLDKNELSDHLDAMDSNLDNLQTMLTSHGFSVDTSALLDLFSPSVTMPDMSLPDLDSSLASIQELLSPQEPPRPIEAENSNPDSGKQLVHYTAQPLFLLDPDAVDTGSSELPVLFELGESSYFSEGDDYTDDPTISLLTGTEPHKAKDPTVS

H4 = experiment: Luminescence Cell-Based Dose Response HTS to Identify Activators of 5'UTR Stem-Loop Driven Prion Protein mRNA Translation in H4 Neuroglioblastoma Cells. [Related pubchem assays: 1829 (Project Summary), 1814 (Primary HTS)]; assay type: functional; conditions: Homo sapiens
[6] = Luminescence Cell-Based Dose Response HTS to Identify Activators of 5'UTR Stem-Loop Driven Prion Protein mRNA Translation in H4-C Neuroglioblastoma Cells. [Related pubchem assays: 1829 (Project Summary), 1814 (Primary HTS)]; assay type: functional
[7] = Luminescence Cell-Based Dose Response HTS to Identify Activators of Luciferase Translation or Activity in H4-C Neuroglioblastoma Cells. [Related pubchem assays: 1829 (Project Summary), 1814 (Primary HTS)]; assay type: functional
[8] = Luminescence Cell-Based Dose Confirmation HTS to Identify Activators of 5'UTR Stem-Loop Driven Alpha-Synuclein mRNA Translation in H4 Neuroglioblastoma Cells. [Related pubchem assays: 1829 (Project Summary), 1814 (Primary HTS)]; assay type: functional
[9] = target: T3, Microphthalmia-associated transcription factor (Homo sapiens, UniProt O75030); experiment: reducers of TRPM1 reporter luminescence, concentration series – cell-based, SK-MEL-5, cherry-picked, set 3, MITF inhibitor project, dose response (AID 493073); assay type: functional;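 further: SK-MEL-5 melanoma cells with luciferase driven by the MITF target TRPM1 promoter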
T3 sequence (O75030 whole entry): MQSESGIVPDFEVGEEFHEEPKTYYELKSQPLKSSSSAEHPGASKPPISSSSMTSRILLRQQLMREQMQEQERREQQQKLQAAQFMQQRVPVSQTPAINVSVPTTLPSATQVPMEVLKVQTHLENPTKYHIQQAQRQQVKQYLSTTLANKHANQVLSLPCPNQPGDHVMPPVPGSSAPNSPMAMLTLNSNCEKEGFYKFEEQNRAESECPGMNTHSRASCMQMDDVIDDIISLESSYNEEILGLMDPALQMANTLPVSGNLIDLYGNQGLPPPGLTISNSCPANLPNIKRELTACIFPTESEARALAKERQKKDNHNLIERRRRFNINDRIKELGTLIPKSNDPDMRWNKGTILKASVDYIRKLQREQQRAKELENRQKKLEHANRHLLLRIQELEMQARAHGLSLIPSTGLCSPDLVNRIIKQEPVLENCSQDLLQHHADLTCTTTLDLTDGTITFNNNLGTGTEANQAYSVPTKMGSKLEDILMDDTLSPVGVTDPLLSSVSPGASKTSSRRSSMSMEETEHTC

[10] = HEK-293T cell viability reduction – luminescence, B-cell screen hits, cytotoxicity control for BCR NF-kB inhibitor project, dose response (AID 489021); assay type: functional, cell-based;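 further: HEK-293T cells carrying an NF-kB luciferase reporter; cells exposed to compound for about 14 hours before viability readout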
[11] = microbe, parasite or virus in culture; assay type: functional; conditions: Mycobacterium tuberculosis
Cytochrome P450 2C9 = Cytochrome P450 2C9 (Homo sapiens, UniProt P11712); conditions: Potency
Sequence of Cytochrome P450 2C9 (P11712 whole entry): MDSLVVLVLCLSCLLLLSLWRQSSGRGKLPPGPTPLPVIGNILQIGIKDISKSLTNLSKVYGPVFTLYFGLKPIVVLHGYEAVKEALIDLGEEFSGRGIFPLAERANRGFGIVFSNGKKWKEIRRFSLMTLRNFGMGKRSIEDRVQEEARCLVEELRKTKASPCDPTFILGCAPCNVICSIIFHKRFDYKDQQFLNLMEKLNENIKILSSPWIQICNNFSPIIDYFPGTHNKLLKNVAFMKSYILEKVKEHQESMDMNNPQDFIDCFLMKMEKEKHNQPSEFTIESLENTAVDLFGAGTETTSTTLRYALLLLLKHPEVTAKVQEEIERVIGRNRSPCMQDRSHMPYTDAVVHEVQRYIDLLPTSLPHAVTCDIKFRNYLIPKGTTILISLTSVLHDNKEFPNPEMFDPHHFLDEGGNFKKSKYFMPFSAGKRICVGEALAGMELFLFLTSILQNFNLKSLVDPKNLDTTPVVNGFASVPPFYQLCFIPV

[12] = target: Cyclin-dependent kinase 5/CDK5 activator 1 (Homo sapiens, UniProt Q00535); experiment: blockade of human CDK5 activity – biochemical, cherry-picked samples, set 2, dose response (AID 504545)
Sequence of Cyclin-dependent kinase 5/CDK5 activator 1 (Q00535 whole entry): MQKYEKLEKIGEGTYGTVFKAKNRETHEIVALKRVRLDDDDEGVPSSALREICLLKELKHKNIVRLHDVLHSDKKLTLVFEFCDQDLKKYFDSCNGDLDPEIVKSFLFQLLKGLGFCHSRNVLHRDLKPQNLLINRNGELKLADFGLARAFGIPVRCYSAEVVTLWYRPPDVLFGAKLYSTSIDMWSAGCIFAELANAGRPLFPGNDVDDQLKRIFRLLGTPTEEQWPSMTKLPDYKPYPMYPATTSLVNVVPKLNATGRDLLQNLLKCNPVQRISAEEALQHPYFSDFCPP
Sequence of Cyclin-dependent kinase 5/CDK5 activator 1 (Q15078 whole entry, further chain): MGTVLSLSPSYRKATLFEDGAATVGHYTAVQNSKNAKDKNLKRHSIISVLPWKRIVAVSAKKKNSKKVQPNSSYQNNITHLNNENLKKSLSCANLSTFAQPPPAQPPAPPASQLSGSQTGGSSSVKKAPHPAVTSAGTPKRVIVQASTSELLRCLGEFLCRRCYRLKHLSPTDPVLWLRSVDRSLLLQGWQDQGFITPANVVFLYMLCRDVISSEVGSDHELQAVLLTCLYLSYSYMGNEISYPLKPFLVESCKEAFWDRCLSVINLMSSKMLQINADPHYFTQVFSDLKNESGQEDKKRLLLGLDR

[13] = target: Acyl-homoserine lactone acylase PvdQ (Pseudomonas aeruginosa (strain LESB58), UniProt Q9I194); experiment: PvdQ acylase enzyme activity blockers – biochemical, fluorescence, plate reader and imaging, cherry-picks, dose response (AID 493231)
Sequence of Acyl-homoserine lactone acylase PvdQ (Q9I194 24-193 limits assumed): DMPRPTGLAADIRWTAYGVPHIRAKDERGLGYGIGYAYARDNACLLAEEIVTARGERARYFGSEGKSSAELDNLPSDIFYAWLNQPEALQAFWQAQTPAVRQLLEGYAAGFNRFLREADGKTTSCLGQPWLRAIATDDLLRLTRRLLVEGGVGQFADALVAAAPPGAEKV
Sequence of Acyl-homoserine lactone acylase PvdQ (Q9I194 217-762 limits assumed): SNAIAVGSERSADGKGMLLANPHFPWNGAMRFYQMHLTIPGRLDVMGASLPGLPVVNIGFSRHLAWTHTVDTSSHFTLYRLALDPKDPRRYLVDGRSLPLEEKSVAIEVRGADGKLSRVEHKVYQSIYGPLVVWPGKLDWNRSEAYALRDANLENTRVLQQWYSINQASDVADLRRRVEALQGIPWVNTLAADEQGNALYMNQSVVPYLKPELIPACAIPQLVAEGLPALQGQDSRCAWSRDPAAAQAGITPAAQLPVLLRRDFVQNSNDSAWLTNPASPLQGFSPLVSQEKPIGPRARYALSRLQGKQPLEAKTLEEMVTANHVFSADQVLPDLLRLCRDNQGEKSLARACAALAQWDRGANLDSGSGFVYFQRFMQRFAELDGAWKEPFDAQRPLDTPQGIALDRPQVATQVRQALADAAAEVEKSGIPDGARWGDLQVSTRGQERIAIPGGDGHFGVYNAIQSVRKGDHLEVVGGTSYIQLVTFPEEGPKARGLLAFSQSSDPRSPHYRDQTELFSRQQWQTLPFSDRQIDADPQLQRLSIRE

Aspartyl aminopeptidase = target: T4, Aspartyl aminopeptidase (Plasmodium falciparum 3D7, UniProt Q8I2J3)
T4 sequence (Q8I2J3 whole entry): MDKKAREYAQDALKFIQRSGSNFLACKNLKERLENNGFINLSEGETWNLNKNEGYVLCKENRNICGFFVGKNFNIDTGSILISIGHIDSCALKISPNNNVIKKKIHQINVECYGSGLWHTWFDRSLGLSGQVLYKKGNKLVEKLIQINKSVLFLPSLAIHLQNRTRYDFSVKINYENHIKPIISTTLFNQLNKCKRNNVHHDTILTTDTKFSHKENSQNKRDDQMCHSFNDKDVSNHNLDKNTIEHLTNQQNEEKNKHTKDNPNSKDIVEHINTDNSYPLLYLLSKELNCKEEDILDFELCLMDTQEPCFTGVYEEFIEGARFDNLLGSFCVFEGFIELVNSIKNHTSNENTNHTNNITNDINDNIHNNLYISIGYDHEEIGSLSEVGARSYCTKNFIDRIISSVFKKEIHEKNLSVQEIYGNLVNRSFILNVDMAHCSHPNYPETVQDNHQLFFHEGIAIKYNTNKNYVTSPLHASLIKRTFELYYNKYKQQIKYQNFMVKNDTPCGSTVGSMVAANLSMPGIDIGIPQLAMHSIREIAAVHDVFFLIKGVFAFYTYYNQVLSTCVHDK

Procathepsin L = Procathepsin L (Homo sapiens, UniProt P07711)
[14] = THP-1 cell cytotoxicity, dose response, cytotoxicity control for non-replicating M. tuberculosis project (AID 489025); assay type: functional
Cytochrome P450 2D6 = Cytochrome P450 2D6 (Homo sapiens, UniProt P10635); experiment: qHTS Assay for Inhibitors and Substrates of Cytochrome P450 2D6. [Related pubchem assays: 410 ]; assay type: ADME; conditions: read-out: Potency
Sequence of Cytochrome P450 2D6 (P10635 whole entry): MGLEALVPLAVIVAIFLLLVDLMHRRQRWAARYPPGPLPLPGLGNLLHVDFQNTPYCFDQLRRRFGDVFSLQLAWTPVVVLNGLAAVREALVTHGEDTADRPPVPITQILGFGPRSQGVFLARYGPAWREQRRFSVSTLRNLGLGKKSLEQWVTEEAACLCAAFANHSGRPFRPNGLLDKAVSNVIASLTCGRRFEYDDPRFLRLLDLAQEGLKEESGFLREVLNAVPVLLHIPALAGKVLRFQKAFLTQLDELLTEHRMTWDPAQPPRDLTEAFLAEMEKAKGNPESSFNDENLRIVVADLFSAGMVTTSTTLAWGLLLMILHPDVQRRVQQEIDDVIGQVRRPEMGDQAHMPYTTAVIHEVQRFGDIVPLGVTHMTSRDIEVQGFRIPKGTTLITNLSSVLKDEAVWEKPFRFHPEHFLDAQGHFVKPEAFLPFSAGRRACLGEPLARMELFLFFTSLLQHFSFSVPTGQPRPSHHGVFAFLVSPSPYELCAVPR

[15] = Luminescence Cell-Based Dose Response HTS to Identify Inhibitors of 5'UTR Stem-Loop Driven Prion Protein mRNA Translation in H4 Neuroglioblastoma Cells. [Related pubchem assays: 1827 (Project Summary), 1813 (Primary HTS)]; assay type: functional
[16] = luciferase reporter signal suppression in cells – H4 neuroglioma cells, luminescence, dose response (AID 1990); assay type: functional, cell-based
[17] = target: T5, Kappa-type opioid receptor (Homo sapiens, UniProt P41145); assay type: functional
T5 sequence (P41145 whole entry): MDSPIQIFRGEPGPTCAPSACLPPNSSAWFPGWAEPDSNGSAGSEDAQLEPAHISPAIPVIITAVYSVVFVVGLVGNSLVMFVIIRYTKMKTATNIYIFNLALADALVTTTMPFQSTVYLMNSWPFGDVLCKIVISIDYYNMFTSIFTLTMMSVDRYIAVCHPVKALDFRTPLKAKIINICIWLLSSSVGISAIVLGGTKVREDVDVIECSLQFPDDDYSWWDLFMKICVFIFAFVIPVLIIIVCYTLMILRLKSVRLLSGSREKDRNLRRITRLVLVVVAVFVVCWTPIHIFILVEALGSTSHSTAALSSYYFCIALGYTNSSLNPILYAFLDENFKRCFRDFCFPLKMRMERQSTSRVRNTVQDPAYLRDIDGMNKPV

Beta-galactosidase = Beta-galactosidase (Escherichia coli, UniProt Q8VNN2); assay type: functional
Sequence of Beta-galactosidase (Q8VNN2 whole entry): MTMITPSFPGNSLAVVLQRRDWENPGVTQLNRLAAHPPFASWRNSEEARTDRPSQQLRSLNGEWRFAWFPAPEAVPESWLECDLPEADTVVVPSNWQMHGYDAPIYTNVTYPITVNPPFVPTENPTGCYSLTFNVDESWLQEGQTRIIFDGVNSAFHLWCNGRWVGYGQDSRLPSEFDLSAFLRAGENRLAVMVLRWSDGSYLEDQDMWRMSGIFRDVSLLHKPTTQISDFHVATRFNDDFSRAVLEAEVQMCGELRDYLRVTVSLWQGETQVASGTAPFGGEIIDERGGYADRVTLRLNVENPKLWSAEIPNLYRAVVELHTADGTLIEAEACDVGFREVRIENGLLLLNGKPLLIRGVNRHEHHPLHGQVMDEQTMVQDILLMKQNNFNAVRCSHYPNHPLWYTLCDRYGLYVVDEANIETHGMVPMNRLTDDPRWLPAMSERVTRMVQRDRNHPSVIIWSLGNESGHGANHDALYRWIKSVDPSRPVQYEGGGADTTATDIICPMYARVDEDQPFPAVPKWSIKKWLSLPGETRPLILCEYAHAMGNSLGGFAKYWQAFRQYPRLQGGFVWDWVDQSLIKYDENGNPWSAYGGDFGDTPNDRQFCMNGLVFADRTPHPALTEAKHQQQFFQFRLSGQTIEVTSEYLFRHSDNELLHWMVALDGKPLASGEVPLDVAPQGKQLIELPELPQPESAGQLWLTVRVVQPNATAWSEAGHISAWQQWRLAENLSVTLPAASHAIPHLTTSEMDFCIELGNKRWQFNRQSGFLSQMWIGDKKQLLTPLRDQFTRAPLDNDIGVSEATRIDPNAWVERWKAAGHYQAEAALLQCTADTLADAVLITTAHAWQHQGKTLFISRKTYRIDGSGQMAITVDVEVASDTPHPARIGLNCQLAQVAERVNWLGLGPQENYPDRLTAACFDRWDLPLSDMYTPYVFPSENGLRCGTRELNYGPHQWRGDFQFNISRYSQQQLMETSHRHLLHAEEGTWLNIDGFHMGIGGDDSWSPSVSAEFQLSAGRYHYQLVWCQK

[18] = target: T5, Kappa-type opioid receptor; assay type: functional; remark: listed apart in the source
cells = assay type: functional
[19] = target: T1, Polyadenylate-binding protein 1; experiment: MLLE domain peptide-binding blockers, IC50 – biochemical, fluorescence polarization, FITC-PAM2 peptide, dose response (AID 602259); assay type: functional; conditions: read-out: IC50_Mean
[20] = target: T1, Polyadenylate-binding protein 1; experiment: MLLE binding blockers, Cy5 peptide tracer – biochemical, fluorescence polarization, Cy5-PAM2 peptide, secondary, miRNA deadenylation inhibitor project, dose response (AID 602260); assay type: functional; conditions: read-out: IC50_Mean
[21] = target: T6, Rac GTPase-activating protein 1 (Homo sapiens, UniProt Q9H0H5); experiment: blockers of MgcRacGAP-driven Rac1 GTP hydrolysis – biochemical, ADP Hunter fluorescence, primary and confirmatory, confirmation (AID 624330); assay type: functional
T6 sequence (Q9H0H5 whole entry): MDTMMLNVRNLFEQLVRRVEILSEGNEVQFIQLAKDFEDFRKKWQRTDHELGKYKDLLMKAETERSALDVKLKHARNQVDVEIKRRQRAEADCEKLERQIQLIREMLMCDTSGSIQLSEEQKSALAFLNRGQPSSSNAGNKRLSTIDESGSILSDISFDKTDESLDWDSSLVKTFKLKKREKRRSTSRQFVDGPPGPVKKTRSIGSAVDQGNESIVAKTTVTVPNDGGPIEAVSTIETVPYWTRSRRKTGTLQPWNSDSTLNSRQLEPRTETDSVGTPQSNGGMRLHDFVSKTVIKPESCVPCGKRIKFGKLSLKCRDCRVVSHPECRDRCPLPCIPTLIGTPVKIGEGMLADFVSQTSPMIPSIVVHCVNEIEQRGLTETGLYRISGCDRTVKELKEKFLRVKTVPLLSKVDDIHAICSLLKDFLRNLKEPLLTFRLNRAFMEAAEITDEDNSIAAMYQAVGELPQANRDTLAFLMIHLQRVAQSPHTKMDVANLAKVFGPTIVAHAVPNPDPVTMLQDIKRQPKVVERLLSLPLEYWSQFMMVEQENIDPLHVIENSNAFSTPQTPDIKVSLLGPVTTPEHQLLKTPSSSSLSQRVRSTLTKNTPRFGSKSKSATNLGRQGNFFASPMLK

[22] = target: Neurotensin receptor type 1 (Homo sapiens, UniProt P30989); assay type: functional;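 further: Image-based confirmatory dose-response assay measuring agonist activity at NTR1; NTR1-expressing U2OS osteosarcoma cells imaged for beta-arrestin GFP spot formation; agonist potency where compounds increase beta-arrestin recruitment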
Sequence of Neurotensin receptor type 1 (P30989 whole entry): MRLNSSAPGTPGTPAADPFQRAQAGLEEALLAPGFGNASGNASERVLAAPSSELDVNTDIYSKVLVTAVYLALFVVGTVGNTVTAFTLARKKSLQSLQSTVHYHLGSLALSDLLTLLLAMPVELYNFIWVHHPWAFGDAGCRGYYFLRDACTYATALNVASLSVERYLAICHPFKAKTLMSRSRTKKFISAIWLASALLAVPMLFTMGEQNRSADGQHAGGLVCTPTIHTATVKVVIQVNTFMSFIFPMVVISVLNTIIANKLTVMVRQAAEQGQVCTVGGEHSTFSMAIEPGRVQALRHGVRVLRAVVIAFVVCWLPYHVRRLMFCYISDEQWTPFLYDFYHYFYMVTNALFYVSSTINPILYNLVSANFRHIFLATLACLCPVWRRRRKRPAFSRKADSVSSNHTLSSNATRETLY

HeLa = experiment: viability loss in HeLa cells – cell-based, 24 h, cherry-picked samples, cytotoxicity control, dose response (AID 504726); assay type: functional; conditions: Homo sapiens;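 further: potency for cytotoxicity as loss of luminescence signal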
Caspase-6 = target: T7, Caspase-6 (Homo sapiens, UniProt P55212); experiment: inhibition of CASP6 peptide cleavage – biochemical, VEID-R110 fluorescence, cherry-pick, dose response (AID 720632)
T7 sequence (P55212 whole entry): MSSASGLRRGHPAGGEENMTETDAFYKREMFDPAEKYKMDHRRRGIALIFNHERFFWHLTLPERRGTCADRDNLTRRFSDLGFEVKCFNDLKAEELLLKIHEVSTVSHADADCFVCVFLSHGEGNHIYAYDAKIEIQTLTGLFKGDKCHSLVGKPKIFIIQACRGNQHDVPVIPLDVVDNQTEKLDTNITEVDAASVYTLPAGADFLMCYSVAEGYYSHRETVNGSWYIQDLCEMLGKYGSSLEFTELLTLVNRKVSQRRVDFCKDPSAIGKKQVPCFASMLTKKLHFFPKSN

[23] = Luminescence Cell-Based Dose Retest to Confirm Inhibitors of Cancer Stem Cells. [Related pubchem assays (depositor defined):AID2717, AID2721]; assay type: functional; conditions: Homo sapiens

T1 sequence (P11940 whole entry): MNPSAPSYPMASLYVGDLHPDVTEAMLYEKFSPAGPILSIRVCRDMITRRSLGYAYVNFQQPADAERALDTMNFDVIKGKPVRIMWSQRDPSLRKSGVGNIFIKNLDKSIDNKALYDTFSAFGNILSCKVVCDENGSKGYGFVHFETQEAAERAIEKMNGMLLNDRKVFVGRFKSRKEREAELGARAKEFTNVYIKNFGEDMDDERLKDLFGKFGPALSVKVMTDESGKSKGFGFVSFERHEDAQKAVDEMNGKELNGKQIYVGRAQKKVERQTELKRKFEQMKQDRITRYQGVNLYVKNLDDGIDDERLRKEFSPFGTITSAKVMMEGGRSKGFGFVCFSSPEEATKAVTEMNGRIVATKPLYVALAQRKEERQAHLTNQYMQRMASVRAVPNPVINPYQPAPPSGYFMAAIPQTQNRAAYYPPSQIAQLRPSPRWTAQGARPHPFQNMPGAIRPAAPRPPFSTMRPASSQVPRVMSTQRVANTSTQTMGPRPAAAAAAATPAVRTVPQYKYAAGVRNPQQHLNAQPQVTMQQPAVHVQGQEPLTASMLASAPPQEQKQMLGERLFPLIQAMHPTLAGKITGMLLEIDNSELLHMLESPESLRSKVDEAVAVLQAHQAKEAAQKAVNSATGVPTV

COC(=O)c1[nH]c2ccccc2c1Sc1ccccc1
IC50 [1]: > 100 µM (inactive) | IC50 [2]: > 100 µM (inactive)

Cc1csc2nc(CCNS(=O)(=O)c3cccs3)cn12
EC50 [3]: 1.85 µM (active) | EC50 [4]: 45.9 µM (active) | EC50 [5]: 254 µM (active) | EC50 (H4): 96.8 µM (active) | EC50 [6]: 13.1 µM (active) | EC50 [7]: 3.07 µM (active) | EC50 [8]: 2.18 µM (active)

O=[N+]([O-])c1ccc(Sc2cc[n+]([O-])c3ccccc23)c([N+](=O)[O-])c1
AC50 [9]: 5.92 µM (active) | IC50 [10]: > 80 µM (inactive) | CC50 [11]: 12.1 µM (active)

CCOC(=O)OCC1OC(C#Cc2ccc(C(C)(C)C)cc2)C=CC1OC(=O)OCC (stereo not drawn)
AC50 (Cytochrome P450 2C9): 0.0025 µM (inconclusive)

COc1cc2ccccc2ccc1=NO
AC50 [12]: 34.7 µM (active)

Nc1nc(Nc2ccccc2)nc(NCCO)c1[N+](=O)[O-]
AC50 [12]: 17.5 µM (active)

CO/N=C/c1cn(-c2ccc(Cl)cc2)nn1
AC50 [13]: 5.97 µM (active)

O=C(NCCc1ccc(O)c(O)c1)C1COc2ccccc2O1 (stereo not drawn)
EC50 [5]: 28.5 µM (active) | IC50 (Aspartyl aminopeptidase): 2.11 µM (active) | IC50 (Procathepsin L): > 59.6 µM (not active)

Cc1ccc(O)c(C(=O)c2cc(C#N)c(=O)n(-c3nccs3)c2)c1
CC50 [14]: 29.6 µM (active)

CC(C)C[C@@H](CC(=O)N[C@H](CC(=O)N[C@@H]1CCNC[C@H]1C(=O)N[C@H](CC(=O)N[C@@H](CCC(=O)O)CC(=O)O)CC(C)C)C(C)C)NC(=O)[C@@H]1CCCC[C@H]1N
AC50 (Cytochrome P450 2D6): 39.8 µM (inconclusive) | AC50 (Cytochrome P450 2C9): 39.8 µM (inconclusive)

Cc1nc2cc(-c3ccccc3)nn2c(C)c1CCC(=O)NCc1ccco1
IC50 [10]: > 80 µM (inactive) | EC50 [15]: 9.65 µM (active) | EC50 [16]: 17.6 µM (active)

COc1ccc(C)c(-n2c(=O)n(Cc3ccccc3)c(=O)c3[nH]cnc32)c1
IC50 [17]: 6.84 µM (active) | EC50 (Beta-galactosidase): 9.23 µM (active) | IC50 [18]: > 32 µM

CCOCC(=O)Nc1nc2ccc(C)cc2s1
IC50 (cells): 34.5 µM (active) | IC50 [19]: > 66 µM (inactive) | AC50 [13]: 24 µM (active) | IC50 [20]: > 66 µM (inactive)

O=C(COc1ccccc1)NCC(=O)N/N=C/c1ccc(O)cc1O
IC50 [21]: 69.4 µM (active) | EC50 [22]: > 40 µM (inactive)

O=C(COC(=O)c1ccc([N+](=O)[O-])o1)NCCCc1ccccc1
AC50 (HeLa): > 350 µM (inactive) | AC50 (Caspase-6): 35.2 µM (active)

O=C(Oc1ccc(Br)cc1C(=O)/C=C/c1ccccc1F)c1ccco1
AC50 [23]: 5.03 µM (active) | EC50 [22]: 15.9 µM (active)

From ChEMBL document CHEMBL1201862, “PubChem BioAssay data set” (2004)
